# Data as given in paper PMC11864979, “First-in-class ultralong-target-residence-time p38α inhibitors as a mitosis-targeted therapy for colorectal cancer” (Nature Cancer, 2025).
# “And” between values parts separate entries of the source, which are not always exact repeats. Equal values may be shown once. Read-outs that look alike come from different tables or passages of the source.
# Tests used:
# PDO10 = assay: cell viability in patient-derived CRC organoids PDO10; type: cell-based, human
# Experimental: (§1) For in vitro treatment studies, organoids were mechanically dissociated and digested using TrypLE supplemented with 100 µg ml^−1 DNaseI and 10.5 µM Y-27632 dihydrochloride (Invitrogen) at 37 °C. A total of 1,000–2,000 single cells were plated per well in white 96-well plates (Greiner) in culture medium containing 10% GFR Matrigel or Cultrex BME. The treatment with doxycycline (5 µg ml^−1), pharmacological inhibitors or corresponding volumes of DMSO was started 24 h after plating. Doxycycline was obtained from Sigma-Aldrich. […] Cell viability was measured by means of CellTiter-Glo 3D or CellTiter-Glo 2.0 reagent (Promega) according to the manufacturers’ instructions and the Infinite M Plex reader (Tecan, i-control version 3.9.1 software). Results were normalized to vehicle (DMSO) or to shNC. For cell-doubling assays, the cell number was quantified at the corresponding time points using Guava EasyCyte flow cytometer (Luminex, CytoSoft v5.2 software).
# PDO13 = assay: cell viability in patient-derived CRC organoids PDO13; type: cell-based, human
# Experimental: as §1
# PDO11 = assay: cell viability in patient-derived CRC organoids PDO11; type: cell-based, human
# Experimental: as §1
# KAP organoids = assay: cell viability in KAP organoids (CellTiter-Glo); type: cell-based, mouse; conditions: for viability at 1 µM: Mus musculus
# Experimental: as §1
# PDO15 = assay: cell viability in patient-derived CRC organoids PDO15; type: cell-based, human
# Experimental: as §1
# RKO = assay: cell viability in human CRC cell line RKO; type: cell-based
# Experimental: (§2) To generate KAP^2D cells, KAP organoids were isolated from Matrigel, fragmented by mechanical dissociation and plated without any extracellular matrix on common cell culture dishes. Phoenix-Eco packaging cells (CRL-3214), HCT-15 (CCL-225), HCT 116 (CCL-247), COLO 205 (CCL-222), LS 174T (CL-188), RKO (CRL-2577) and HT-29 (HTB-38) were obtained from the American Type Culture Collection. The cells were cultured at 37 °C and 7% CO2 with RPMI (KAP^2D cells) or DMEM (other cell lines), supplemented with 10% FBS and penicillin–streptomycin. KAP^2D cells were authenticated using PCR (Kras locus and Trp53 locus). Phoenix-Eco packaging cells and HCT-15, HCT 116, COLO 205, LS 174T, RKO and HT-29 cells were authenticated by the provider using short tandem repeat profiling. No commonly misidentified cell lines were used. Mycoplasma contamination was excluded by a PCR-based analysis.
# as §1
# PDO6 = assay: cell viability in patient-derived CRC organoids PDO6; type: cell-based, human
# Experimental: as §1
# HCT-15 = assay: cell viability in human CRC cell line HCT-15; type: cell-based
# Experimental: as §2, §1
# KAP^2D cells = assay: EdU incorporation in KAP^2D cells; type: cell-based, mouse; conditions: replicates, experiment and repetition
# Experimental: Immunofluorescence staining on cells and organoids was performed on glass coverslips or tissue culture chambers (Sarstedt). Organoids were plated in medium containing 10% Matrigel or Cultrex BME. The cultures were fixed with 4% paraformaldehyde and stained with specific antibodies and DAPI (Vector Labs). All used antibodies and dilutions are listed in the Nature Portfolio Reporting Summary. For analyzing DNA synthesis, the Molecular Probes Click-iT EdU Alexa Fluor 555 kit was used 24 h after EdU incorporation with DAPI counterstaining. SA-β-Gal staining of cells was performed in cell culture dishes (cells) or tissue culture chambers (organoids) after fixation with 0.5% glutaraldehyde as described above. Human cultures were incubated with X-Gal solution at pH 6.0 for ~4 h.
# PDO8 = assay: cell viability in patient-derived CRC organoids PDO8; type: cell-based, human
# Experimental: as §1
compound,measurement,setting,value
CNC(=O)c1ccc2c(c1)C(=O)c1ccc(Nc3ccc(F)c(NC(=O)C4CC4)c3)cc1CC2 [Compound 2015],viability at 1 µM,"PDO10; Homo sapiens, 96 h, PDO10, 1 µM, 4 days, read-out: Cell viability (%)",32.9%
same,Cell viability (%),"PDO10; PDO10, 0.5 µM, 4 d, 0.5 µM",34.24% and 30.71% and 56.53%
same,Cell viability (%),"PDO10; PDO10, 1 µM, 4 days, 1 µM",48.68% and 34.77%
same,viability at 0.5 µM,"PDO13; Homo sapiens, 96 h, PDO13, 0.5 µM, 4 d, read-out: Cell viability (%)",25.4%
same,viability at 1 µM,"PDO13; Homo sapiens, 96 h, PDO13, 1 µM, 4 days, read-out: Cell viability (%)",27.4%
same,Cell viability (%),"PDO13; PDO13, 0.5 µM, 4 d, 0.5 µM",27.09% and 31.57%
same,Cell viability (%),"PDO13; PDO13, 1 µM, 4 days, 1 µM",24.42% and 28.18%
same,viability at 0.5 µM,"PDO11; Homo sapiens, 96 h, PDO11, 0.5 µM, 4 d, read-out: Cell viability (%)",105%
same,viability at 1 µM,"PDO11; Homo sapiens, 96 h, PDO11, 1 µM, 4 days",10.3%
same,Cell viability (%),"PDO11; PDO11, 0.5 µM, 4 d, 0.5 µM",87.92% and 104.04%
same,Cell viability (%),"PDO11; PDO11, 1 µM, 4 days, 1 µM",16.83% and 13.26%
same,Cell viability (%),"KAP organoids; Fig. 2b, compound screen, replicates",20.98% and 10.41% and 17.65%
same,Cell viability (%),"KAP organoids; Fig. 2f, 0,5 µM, replicates, 5 µM",20.49% and 19.41%
same,Cell viability (%),"KAP organoids; Fig. 2f, 0,25 µM, replicates, 25 µM",76.91% and 71.00%
same,Cell viability (%),"KAP organoids; Fig. 2f, 1 µM, replicates",22.79% and 21.48%
same,viability at 1 µM,"KAP organoids; Fig. 2f, 1 µM, replicates, read-out: Cell viability (%)",22.2%
same,viability at 1 µM,"KAP organoids; drug screen in KAP organoids, 1 µM concentration, n = 3, mean, read-out: Cell viability (% of DMSO)",16.4%
same,induction of cell death in KAP organoids (in words),KAP organoids; viability assay,increased cell death induction
same,viability at 0.5 µM,"PDO15; Homo sapiens, 96 h, PDO15, 0.5 µM, 4 d, read-out: Cell viability (%)",77.8%
same,viability at 1 µM,"PDO15; Homo sapiens, 96 h, PDO15, 1 µM, 4 days, read-out: Cell viability (%)",42.9%
same,Cell viability (%),"PDO15; PDO15, 0.5 µM, 4 d, 0.5 µM",81.70% and 63.83%
same,Cell viability (%),"PDO15; PDO15, 1 µM, 4 days, 1 µM",57.05% and 51.26%
same,RKO Cell viability (%),"RKO; 0.0137 µM, ED Fig. 9g, Repetition, replicates",116.22% and 90.48% and 118.38%
same,RKO Cell viability (%),"RKO; 0.0137 µM, ED Fig. 9g, first experiment, replicates",100.34% and 101.05%
same,RKO Cell viability (%),"RKO; 0.0412 µM, ED Fig. 9g, Repetition, replicates",83.96% and 99.53%
same,RKO Cell viability (%),"RKO; 0.0412 µM, ED Fig. 9g, first experiment, replicates",92.30% and 91.06%
same,RKO Cell viability (%),"RKO; 0.1235 µM, ED Fig. 9g, Repetition, replicates",63.64% and 62.87%
same,RKO Cell viability (%),"RKO; 0.1235 µM, ED Fig. 9g, first experiment, replicates",80.06% and 70.93%
same,RKO Cell viability (%),"RKO; 0.3704 µM, ED Fig. 9g, Repetition, replicates",22.09% and 24.58%
same,RKO Cell viability (%),"RKO; 0.3704 µM, ED Fig. 9g, first experiment, replicates",38.23% and 37.54%
same,RKO Cell viability (%),"RKO; 1.1111 µM, ED Fig. 9g, Repetition, replicates",19.45% and 19.66%
same,RKO Cell viability (%),"RKO; 1.1111 µM, ED Fig. 9g, first experiment, replicates",16.15% and 15.81%
same,RKO Cell viability (%),"RKO; 3.3333 µM, ED Fig. 9g, Repetition, replicates",19.33% and 18.47%
same,RKO Cell viability (%),"RKO; 3.3333 µM, ED Fig. 9g, first experiment, replicates",14.04% and 13.50%
same,RKO Cell viability (%),"RKO; 10.0000 µM, ED Fig. 9g, Repetition, replicates",17.62% and 19.44%
same,RKO Cell viability (%),"RKO; 10.0000 µM, ED Fig. 9g, first experiment, replicates",15.71% and 16.52%
same,IC50,"RKO; Homo sapiens, 96 h, RKO, 4 d of treatment",0.207 µM
same,viability at 0.0137 µM,"RKO; Homo sapiens, RKO, 0.0137 µM, ED Fig. 9g, first experiment, replicates, read-out: RKO Cell viability (%)",104%
same,viability at 0.0412 µM,"RKO; Homo sapiens, RKO, 0.0412 µM, ED Fig. 9g, Repetition, replicates, read-out: RKO Cell viability (%)",103%
same,viability at 0.0412 µM,"RKO; Homo sapiens, RKO, 0.0412 µM, ED Fig. 9g, first experiment, replicates, read-out: RKO Cell viability (%)",104%
same,viability at 0.1235 µM,"RKO; Homo sapiens, RKO, 0.1235 µM, ED Fig. 9g, Repetition, replicates, read-out: RKO Cell viability (%)",65.6%
same,viability at 0.1235 µM,"RKO; Homo sapiens, RKO, 0.1235 µM, ED Fig. 9g, first experiment, replicates, read-out: RKO Cell viability (%)",73.7%
same,viability at 0.3704 µM,"RKO; Homo sapiens, RKO, 0.3704 µM, ED Fig. 9g, Repetition, replicates, read-out: RKO Cell viability (%)",25.3%
same,viability at 0.3704 µM,"RKO; Homo sapiens, RKO, 0.3704 µM, ED Fig. 9g, first experiment, replicates, read-out: RKO Cell viability (%)",36.7%
same,viability at 1.1111 µM,"RKO; Homo sapiens, RKO, 1.1111 µM, ED Fig. 9g, Repetition, replicates, read-out: RKO Cell viability (%)",20%
same,viability at 1.1111 µM,"RKO; Homo sapiens, RKO, 1.1111 µM, ED Fig. 9g, first experiment, replicates, read-out: RKO Cell viability (%)",15.3%
same,viability at 3.3333 µM,"RKO; Homo sapiens, RKO, 3.3333 µM, ED Fig. 9g, Repetition, replicates, read-out: RKO Cell viability (%)",19.5%
same,viability at 3.3333 µM,"RKO; Homo sapiens, RKO, 3.3333 µM, ED Fig. 9g, first experiment, replicates, read-out: RKO Cell viability (%)",14.5%
same,viability at 10 µM,"RKO; Homo sapiens, RKO, 10.0000 µM, ED Fig. 9g, Repetition, replicates, read-out: RKO Cell viability (%)",20%
same,viability at 10 µM,"RKO; Homo sapiens, RKO, 10.0000 µM, ED Fig. 9g, first experiment, replicates, read-out: RKO Cell viability (%)",16.2%
same,viability at 0.5 µM,"PDO6; Homo sapiens, 96 h, PDO6, 0.5 µM, 4 d",20.6%
same,Cell viability (%),"PDO6; PDO6, 0.5 µM, 4 d, 0.5 µM",31.27% and 20.78%
same,Cell viability (%),"PDO6; PDO6, 1 µM, 4 days, 1 µM",11.74% and 11.40% and 5.21%
same,HCT-15 Cell viability (%),"HCT-15; 0.0137 µM, 4 d",103.10% and 103.13% and 91.18% and 87.03% and 85.56%
same,HCT-15 Cell viability (%),"HCT-15; 0.0412 µM, 4 d",84.86% and 83.29% and 102.50% and 98.30% and 96.97%
same,HCT-15 Cell viability (%),"HCT-15; 0.1235 µM, 4 d",82.55% and 82.85% and 86.50% and 79.01% and 79.10%
same,HCT-15 Cell viability (%),"HCT-15; 0.3704 µM, 4 d",32.71% and 35.41% and 27.58% and 24.60% and 25.76%
same,HCT-15 Cell viability (%),"HCT-15; 1.1111 µM, 4 d",27.21% and 26.38% and 23.73% and 21.02% and 21.11%
same,HCT-15 Cell viability (%),"HCT-15; 3.3333 µM, 4 d",22.84% and 23.64% and 17.67% and 16.95% and 16.80%
same,HCT-15 Cell viability (%),"HCT-15; 10.0000 µM, 4 d",23.68% and 23.79% and 17.32% and 16.59% and 17.19%
same,IC50,"HCT-15; Homo sapiens, 96 h, HCT-15, 4 d of treatment",0.182 µM
same,viability at 0.0137 µM,"HCT-15; Homo sapiens, HCT-15, 96 h, 0.0137 µM, 4 d, read-out: HCT-15 Cell viability (%)",103%
same,viability at 0.0412 µM,"HCT-15; Homo sapiens, HCT-15, 96 h, 0.0412 µM, 4 d, read-out: HCT-15 Cell viability (%)",89.2%
same,viability at 0.1235 µM,"HCT-15; Homo sapiens, HCT-15, 96 h, 0.1235 µM, 4 d, read-out: HCT-15 Cell viability (%)",85.9%
same,viability at 0.3704 µM,"HCT-15; Homo sapiens, HCT-15, 96 h, 0.3704 µM, 4 d, read-out: HCT-15 Cell viability (%)",23.5%
same,viability at 1.1111 µM,"HCT-15; Homo sapiens, HCT-15, 96 h, 1.1111 µM, 4 d, read-out: HCT-15 Cell viability (%)",31.6%
same,viability at 3.3333 µM,"HCT-15; Homo sapiens, HCT-15, 96 h, 3.3333 µM, 4 d, read-out: HCT-15 Cell viability (%)",23.9%
same,viability at 10 µM,"HCT-15; Homo sapiens, HCT-15, 96 h, 10.0000 µM, 4 d, read-out: HCT-15 Cell viability (%)",24.1%
same,EdU+ cells,KAP^2D cells; Fig. 4j,50.19% and 55.77% and 45.40% and 44.63% and 45.42% and 38.28% and 36.62% and 49.78%
same,EdU+ cells,KAP^2D cells; Fig. 5b,7.76% and 6.30% and 5.41% and 9.24% and 8.18% and 6.48% and 4.44% and 6.67%
same,viability at 1 µM,"PDO8; Homo sapiens, 96 h, PDO8, 1 µM, 4 days",47.8%
same,Cell viability (%),"PDO8; PDO8, 0.5 µM, 4 d, 0.5 µM",62.35% and 47.16% and 31.30%
same,Cell viability (%),"PDO8; PDO8, 1 µM, 4 days, 1 µM",40.47% and 33.30%
